# Columns and labels:
# [1] = test system: Human Rhinovirus serotypes HRV- 2,-29,-39,-85,-9,-15,-51,-59,-63,-89 and -41; test: Picornavirus Minimal Inhibitory Concentration test (cytopathic effect reduction assay), first panel of rhinoviruses; format: cell-based; details: Human rhinovirus sp., HeLa, read-out: Med₁
# Experimental: (§1) The Minimal Inhibitory Concentration of the compounds of the present invention against the Human Rhinovirus strains (HRV) -2,-9,-14,-15,-29,-39,-41,-42,-45,-51 -59,-63,-70,-72-,-85,-86 and -89 was determined by a standard cytophatic effect reduction assay as follows. To each of the ninty six (96) wells of a microtiter 96 well tissue culture plate there was added 60 µl of a Ohio Hela cell maintenance medium [Eagle's Basal medium supplemented with 5% Foetal Calf Serum (FCS)]. To two wells there was added 60 µl of an appropriate starting dilution of a compound of formula (I) and two-fold dilutions were made to cover a wide range of compound concentrations. Subsequently there were added 120 µl of an infectious solution of virus in Eagle's Basal Medium with 2% Hepes buffer, 2% FCS and 30 mM MgCl₂ to all wells except cell and compound controls. Said infectious virus solution having a TCID₅₀-value (Tissue Culture Infectious Dose) of about 100.
# (§2) The TCID₅₀-value is the dose of viruses which initiates a cytopathic effect in 50% of the inoculated cells. 150 µl of the thus obtained virus-compound mixtures were then transferred to microtitre plates with subconfluent Ohio Hela Cells, grown in 100 µl of maintenance medium. Appropriate virus controls, cell controls and compound controls were included in each test. Plates were incubated for 3 to 5 days at 33°C in 5% CO₂ atmosphere. […] The IC₅₀-value for each virus-compound series was taken as the concentration in ng/ml that protected 50% of the cells from cytopathic effects with respect to the untreated controls. In the standard test procedure, the compounds were tested against a first panel of rhinoviruses consisting of serotypes HRV- 2,-29,-39,-85,-9,-15,-51,-59,-63,-89 and -41 and the other panel consisting of HRV-42,-45,-14,-70,-72 and -86.
# (§3) The IC₅₀-value for each rhinovirus serotype was determined, and the efficacy of each compound was determined in terms of the Med₁-value and Med₂-value, which is the medium value of the IC₅₀-values of all serotypes from the first and second panel respectively.
# [2] = test system: HRV-42,-45,-14,-70,-72 and -86; test: Picornavirus Minimal Inhibitory Concentration test (cytopathic effect reduction assay), second panel of rhinoviruses; format: cell-based; details: Human rhinovirus sp., HRV42, HeLa, read-out: Med₂
# Experimental: as §1, §2, §3
SMILES,IC50 [1] [µg/mL],IC50 [2] [µg/mL]
"CCOC(=O)c1ccc2oc(CCC3CCN(c4ccc(Cl)nn4)CC3)nc2c1 [Compound 4, ethyl 2-[2-[1-(6-chloro-3-pyridazinyl)-4-piperidinyl]ethyl]-5-benzoxazolecarboxylate]",0.088,0.039
"CCOC(=O)c1ccc(OCCC2CCN(c3ccc(C)nn3)CC2)s1 [Compound 7, ethyl 5-[2-[1-(6-methyl-3-pyridazinyl)-4-piperidinyl]ethoxy]-2-thiophenecarboxylate]",0.007,0.185
"CCOC(=O)c1ccc2nc(CC3CCN(c4ccc(Cl)nn4)CC3)sc2c1 [Compound 2, ethyl 2-[[1-(6-chloro-3-pyridazinyl)-4-piperidinyl]methyl]-6-benzothiazolecarboxylate]",0.031,0.067
